Laboratory results from paper PMC6934184, “Selective DNA-PKcs inhibition extends the therapeutic index of localized radiotherapy and chemotherapy” (The Journal of Clinical Investigation, 2019).

Molecular target: T1, IKBKB (IKK beta) (Homo sapiens, UniProt O14920)
T1 construct: purchased Thermo Fisher Scientific (Life Technologies) SelectScreen
Experiment: SelectScreen Z'LYTE
Assay type: biochemical
Outline: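 Percent values come from Thermo SelectScreen profiling of NU5455, combining activity and binding assays. CSF1R was run in Z'LYTE format at Km app ATP, and CAMK1 in Adapta format with ATP listed at 10.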

T1 sequence (O14920 whole entry): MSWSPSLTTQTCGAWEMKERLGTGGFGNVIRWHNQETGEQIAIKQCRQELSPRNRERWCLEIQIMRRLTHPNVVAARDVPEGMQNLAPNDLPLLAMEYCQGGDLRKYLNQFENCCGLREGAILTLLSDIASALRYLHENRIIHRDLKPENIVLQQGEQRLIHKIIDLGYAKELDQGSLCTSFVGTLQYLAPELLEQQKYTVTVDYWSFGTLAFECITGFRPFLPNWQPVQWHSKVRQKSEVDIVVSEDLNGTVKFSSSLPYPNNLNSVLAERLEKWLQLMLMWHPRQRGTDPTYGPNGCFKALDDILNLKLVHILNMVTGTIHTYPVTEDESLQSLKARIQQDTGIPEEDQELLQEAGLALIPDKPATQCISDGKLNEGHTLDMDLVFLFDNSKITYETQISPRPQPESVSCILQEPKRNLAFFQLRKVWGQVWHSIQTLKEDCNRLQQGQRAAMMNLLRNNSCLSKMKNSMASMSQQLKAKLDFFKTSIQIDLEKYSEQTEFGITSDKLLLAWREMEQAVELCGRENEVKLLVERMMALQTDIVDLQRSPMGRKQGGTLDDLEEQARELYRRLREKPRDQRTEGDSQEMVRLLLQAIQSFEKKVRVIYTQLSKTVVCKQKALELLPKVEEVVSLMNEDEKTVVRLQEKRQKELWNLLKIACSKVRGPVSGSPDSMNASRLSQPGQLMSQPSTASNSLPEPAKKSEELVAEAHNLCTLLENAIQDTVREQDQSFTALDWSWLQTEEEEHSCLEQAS

CN(C(=O)CN1CCOCC1)c1ccc2sc3c(-c4cccc5c(=O)cc(N6CC7CCC(C6)O7)oc45)cccc3c2c1 [NU5455]
inhibition at 1 µM: -0.6%
